Biological target: benzodiazepine site of the GABAA receptor
Test: Radioligand binding assay, 3H-Ro15-1788 (Flumazenil), purified rat cortical membranes
Conditions: previously determined; used in the Cheng-Prusoff equation; read-out: binding dissociation constant (Kd) of 3H-Ro15-1788

## CCOC(=O)c1ncn2c1CN(C)C(=O)c1cc(F)ccc1-2 [^3H-Ro15-1788]
  Kd: 1 nM
